# Experimental data from patent publication US20190070170A1, “METHOD OF S[…]-1” (Macau University of Science and Technology, priority 2017, published 2019).
# What was measured:
# PGD2 = PGD2 level in culture supernatants of LPS-activated rat peritoneal macrophages (ELISA); assay type: cell-based; settings: LPS-stimulated rat peritoneal macrophages, culture supernatant
# Experimental: Sprague-Dawley (SD) rats from the University of Hong Kong were housed in cages with free access to food and water. Peritoneal macrophages of SD rats were isolated as described in Liu J. et al., Pharmacological research 2016, 111:303-315. Briefly, untreated rats were sacrificed and after laparotomy, about 50 ml cold sterile Hank's balanced salt solution (HBSS) was used to lavage the peritoneal cavity at twice, and then the peritoneal lavage fluid was collected and centrifuged at 1500 rpm for 10 min. The cell pellets was suspended at a density 1.5×10^6 cells/ml in pre-hearted DMEM medium with 10% heat-inactivated FBS, penicillin G (100 units/ml), streptomycin ([…]), and L-glutamine (2 mM), followed by seeding in 6-well plates at a density of 4.5×10^6 cells and incubation for 2 h. Then the medium were discarded to remove the non-adherent cells. The adherent cells were further washed for two times with pre-heated DMEM medium to remove floating cells. Next, cells were pre-treated with various concentration of SIN for 1 h, followed by stimulation with LPS (1 μg/ml).
# RAW264.7 cells and rat peritoneal macrophages were seeded in a 96-well plate at density of 1.4×10^4 and 1.5×10^5 cells, respectively. […] The optical density was measured at 570 nm against a reference wavelength of 650 nm using a microplate UV/VIS spectrophotometer (Tecan, Mannedorf, Switzerland). […]
# mPGES-1 = mPGES-1 protein in microsomes of inflamed paw of carrageenan-induced rats (western blotting); assay type: in vivo, SD rats; settings: SIN 25, 50, 100 mg/kg or DEX 2 mg/kg i.p.
# Experimental: The model of carrageenan-induced paw edema was performed with SD rats (150-200 g). […] Briefly, rats were fasted for 12 h before experiment and intraperitoneal injection was performed with three different doses (25, 50 and 100 mg/kg) of SIN, or DEX (reference drug, 2 mg/kg) or 0.9% saline (Vehicle and Normal group rats), at 2 h prior to the induction of paw edema. Paw edema was induced by subcutaneous injection of 100 μl of 1% (w/v) freshly prepared λ-carrageenan (Sigma, St Louis, Mo., USA) diluted in saline in the right hind foot pad. 100 μl sterile saline was injected to the rats in the right hind paw as normal control.
# After accomplish the experiment, rats were sacrificed by injection of dorminal, which contains 20% pentobarbital and followed by cervical dislocation. The paw tissues were removed and freshly frozen in liquid nitrogen immediately and stored at −80° C.
# Frozen paws were pulverized in liquid nitrogen using a stainless steel mortar and pestle, then re-suspended in 8 volumes of ice-cold PBS from Invitrogen (San Diego, Calif., USA) with 2.6 mM DTT from Promega (Madison, Wis., USA) and 2×Complete Protease Inhibitor mixture from Roche (Mannheim, Germany), and homogenized on ice bath using a tissue homogenizer from T25 digital, IKA (Stanfen, Germany) at 10,000 rpm/min for 5 min. […] The protein concentrations were measured using a Bio-Rad protein assay kit (Hercules, Calif., USA). […]
# COX-2 = COX-2 protein in microsomes of inflamed paw of carrageenan-induced rats (western blotting); assay type: in vivo, SD rats; settings: SIN or DEX pretreatment i.p.
# Experimental: The model of carrageenan-induced paw edema was performed with SD rats (150-200 g). The carrageenan-induced paw edema was performed in SD rats (150-200 g) by subcutaneously injection λ-carrageenan as described in Liu J. et al., Pharmacological research 2016, 111 and Luo P. et al., J. Pharmacol. Exp. Ther. 2010. Briefly, rats were fasted for 12 h before experiment and intraperitoneal injection was performed with three different doses (25, 50 and 100 mg/kg) of SIN, or DEX (reference drug, 2 mg/kg) or 0.9% saline (Vehicle and Normal group rats), at 2 h prior to the induction of paw edema. […] Paw volumes (ml) of right hind foot of each rat were measured using a plethysmometer (type 7150; UGO Basile, Comerio, Italy) at 0 h (before carrageenan injection) and then again at 1, 2, 3 and 4 h after the injection of carrageenan or saline. The percentage of paw edema of the right hind paws of all groups were calculated at different time points by the following equation: […]
# Whole-cell and nuclear proteins were obtained using RIPA lysis buffer (CST, Boston, Mass., USA) and Nuclear and Cytoplasmic Extraction Reagents kit from Thermo Scientific (Asheville, N.C., USA), respectively. […] The levels of protein expression were measured using Odyssey v3.0 software from Li-COR (Lincoln, Nebr., USA).
smiles,measurement,setting,value
"COC1=C[C@@H]2[C@@H]3Cc4ccc(OC)c(O)c4[C@]2(CCN3C)CC1=O [SIN, sinomenine]",level of PGD2,PGD2,no significant influence
same,mPGES-1 protein expression in inflamed paw tissues,mPGES-1,strongly down-regulated
same,COX-2 level in inflamed paw,COX-2,did not produce observable effects
